Where two headings read alike, the source gives them in different places.
Experiment: log P by HPLC on reversed-phase column (EEC Directive 79/831 Annex V.A8)
Format: physicochemical
Procedure: In table 1, the log P values were determined in accordance with EEC Directive 79/831 Annex V.A8 by HPLC (High Performance Liquid Chromatography) on a reversed-phase column (C18), using the method described below: Temperature: 40° C.; […]

Row | SMILES | logP | other results
1 | Cn1nc(C(F)F)c(C(=O)NC(COc2ccc3ccccc3c2)C2CC2)c1Cl (racemic) [Example 138] | 3.94 | 
2 | CN(C(=O)c1c(C(F)F)nn(C)c1Cl)C(COc1ccc2ccccc2c1)C1CC1 (racemic) [Example 140] | 3.96 | 
3 | CC(O)C1CCCCC1NC(=O)c1c(C(F)F)nn(C)c1F (single isomer, unassigned) [Example 342] | 2.08 isomer B | 
4 | CC(C)(C)C#Cc1cccc(N)c1 [3-(3,3-dimethylbut-1-yn-1-yl)aniline] |  | chromatographic logP (reversed-phase HPLC column (C18), HPLC, 0.1% aqueous formic acid and acetonitrile, 40° C., read-out: log P): 2.71
5 | CC(C)N(CC(=O)Nc1ccccc1)C(=O)c1c(C(F)F)nn(C)c1Cl [Example 2] | 2.43 | 
6 | Cn1nc(C(F)F)c(C(=O)NC2(C(=O)Nc3ccccc3)CCCC2)c1Cl [Example 4] | 2.62 | 
7 | CCCN(CCOc1ccccc1)C(=O)c1c(C(F)F)nn(C)c1Cl [Example 7] | 3.21 | 
8 | CC(COc1ccccc1)N(C)C(=O)c1c(C(F)F)nn(C)c1Cl (stereo not drawn) [Example 15] | 2.78 | 
9 | CN(CC(NC(=O)c1c(C(F)F)nn(C)c1Cl)C1CC1)c1ccccc1 (stereo not drawn) [Example 18] | 3.31 | 
10 | Cn1nc(C(F)F)c(C(=O)NC(COc2ccccc2)C2CC2)c1Cl (stereo not drawn) [Example 20] | 3.25 | 
11 | Cn1nc(C(F)F)c(C(=O)NC(CSc2ccccc2)C2CC2)c1Cl (stereo not drawn) [Example 23] | 3.44 | 
12 | Cn1nc(C(F)F)c(C(=O)NC(C)(C)C(=O)Nc2ccccc2)c1Cl [Example 25] | 2.27 | 
13 | Cn1nc(C(F)F)c(C(=O)NCCOc2ccc(-c3ccccc3)cc2)c1Cl [Example 26] | 3.60 | 
14 | Cn1nc(C(F)F)c(C(=O)NCCOc2ccc(-c3ccccc3)cc2)c1F [Example 27] | 3.44 | 
15 | CCCN(C(=O)c1c(C(F)F)nn(C)c1Cl)C(C)COc1ccccc1-c1ccccc1 (stereo not drawn) [Example 31] | 4.51 | 
16 | CCN(C(=O)c1c(C(F)F)nn(C)c1Cl)C(C)COc1ccc(C)cc1 (stereo not drawn) [Example 39] | 3.48 | 
17 | Cc1ccc(SCC(C2CC2)N(C)C(=O)c2c(C(F)F)nn(C)c2Cl)cc1 (stereo not drawn) [Example 41] | 3.85 | 
18 | Cn1nc(C(F)F)c(C(=O)NCCOc2ccc(Cl)cc2)c1Cl [Example 49] | 2.96 | 
19 | Cn1nc(C(F)F)c(C(=O)N(CCOc2ccc(Cl)cc2)C2CCC2)c1F [Example 50] | 3.78 | 
20 | Cn1nc(C(F)F)c(C(=O)N(CCOc2ccc(Cl)cc2)C2CCCC2)c1Cl [Example 51] | 4.32 | 

Row | SMILES | logP | other results
21 | Cn1nc(C(F)F)c(C(=O)N(CCOc2ccc(Cl)cc2)C2CCC2)c1Cl [Example 52] | 3.99 | 
22 | CC(C)N(CCOc1ccc(Cl)cc1)C(=O)c1c(C(F)F)nn(C)c1Cl [Example 53] | 3.78 | 
23 | CCCN(CCOc1ccc(Cl)cc1)C(=O)c1c(C(F)F)nn(C)c1Cl [Example 54] | 3.67 | 
24 | Cn1nc(C(F)F)c(C(=O)N(CCOc2ccc(Cl)cc2)C2CCCC2)c1F [Example 55] | 4.13 | 
25 | CCCN(CCOc1ccc(Cl)cc1)C(=O)c1c(C(F)F)nn(C)c1F [Example 57] | 3.53 | 
26 | Cn1nc(C(F)F)c(C(=O)NCCS(=O)(=O)c2ccc(Cl)cc2)c1F [Example 58] | 2.10 | 
27 | Cn1nc(C(F)F)c(C(=O)NCCS(=O)(=O)c2ccc(Cl)cc2)c1Cl [Example 59] | 2.30 | 
28 | Cn1nc(C(F)F)c(C(=O)NC(CCc2ccc(Cl)cc2)C(C)(C)C)c1F (stereo not drawn) [Example 60] | 4.24 | 
29 | Cn1nc(C(F)F)c(C(=O)NC(CCc2ccc(Cl)cc2)C(C)(C)C)c1Cl (stereo not drawn) [Example 61] | 4.41 | 
30 | CCCN(CCOc1ccc(C(=O)OCC)cc1)C(=O)c1c(C(F)F)nn(C)c1Cl [Example 72] | 3.44 | 
31 | CCCN(CCOc1ccc(C(=O)OCC)cc1)C(=O)c1c(C(F)F)nn(C)c1F [Example 73] | 3.31 | 
32 | Cn1nc(C(F)F)c(C(=O)NCCOc2cccc(Oc3ccccc3)c2)c1Cl [Example 75] | 3.60 | 
33 | CC1CCCC(Cc2cccc(Cl)c2)C1NC(=O)c1c(C(F)F)nn(C)c1Cl (stereo not drawn) [Example 80] |  | logP (HPLC on reversed-phase column (C18), 40° C., 0.1% aqueous formic acid and acetonitrile, linear gradient 10% to 90% acetonitrile): 4.51
34 | CC(CCc1ncc(C(F)(F)F)cc1Cl)N(C(=O)c1c(C(F)F)nn(C)c1Cl)C1CC1 (stereo not drawn) [Example 85] | 4.11 | 
35 | CC(CCc1ncc(C(F)(F)F)cc1Cl)N(C(=O)c1c(C(F)F)nn(C)c1F)C1CC1 (stereo not drawn) [Example 86] | 3.92 | 
36 | CC(CCc1ncc(C(F)(F)F)cc1Cl)N(C)C(=O)c1c(C(F)F)nn(C)c1Cl (stereo not drawn) [Example 88] | 3.45 | 
37 | CCC(CCc1sccc1Br)NC(=O)c1c(C(F)F)nn(C)c1Cl (stereo not drawn) [Example 90] | 3.63 | 
38 | Cn1nc(C(F)F)c(C(=O)N(CCCc2cc3ccccc3o2)C2CC2)c1F [Example 91] | 3.52 | 
39 | Cn1nc(C(F)F)c(C(=O)NCCCc2cc3ccccc3o2)c1F [Example 92] | 2.90 | 
40 | CN(CCCc1cc2ccccc2o1)C(=O)c1c(C(F)F)nn(C)c1F [Example 93] | 3.00 | 

Row | SMILES | logP | other results
41 | Cn1nc(C(F)F)c(C(=O)NCCCc2cc3ccccc3s2)c1F [Example 95] | 3.17 | 
42 | CN(CCCc1cc2ccccc2s1)C(=O)c1c(C(F)F)nn(C)c1F [Example 96] | 3.25 | 
43 | Cn1nc(C(F)F)c(C(=O)N(CCCC2CC=CO2)C2CC2)c1F (stereo not drawn) [Example 98] | 1.45 | 
44 | Cn1nc(C(F)F)c(C(=O)N(CCCc2ccco2)C2CC2)c1F [Example 99] | 2.75 | 
45 | CN(CCCc1ccco1)C(=O)c1c(C(F)F)nn(C)c1F [Example 101] | 2.25 | 
46 | Cc1ccsc1CCCN(C(=O)c1c(C(F)F)nn(C)c1F)C1CC1 [Example 105] | 3.33 | 
47 | Cc1ccc(C(C)CCN(C(=O)c2c(C(F)F)nn(C)c2Cl)C2CC2)o1 (stereo not drawn) [Example 108] | 3.56 | 
48 | Cc1ccc(C(C)CCN(C)C(=O)c2c(C(F)F)nn(C)c2Cl)o1 (stereo not drawn) [Example 110] | 3.02 | 
49 | CON(CCC(C)c1ccc(C)o1)C(=O)c1c(C(F)F)nn(C)c1Cl (stereo not drawn) [Example 111] | 3.29 | 
50 | CON(CCC(C)c1ccc(C)o1)C(=O)c1c(C(F)F)nn(C)c1F (stereo not drawn) [Example 112] | 3.23 | 
51 | Cc1ccc(CCCN(C(=O)c2c(C(F)F)nn(C)c2F)C2CC2)s1 [Example 113] | 3.44 | 
52 | Cc1cccc(C)c1OCCNC(=O)c1c(C(F)F)nn(C)c1Cl [Example 152] | 3.13 | 
53 | Cn1nc(C(F)F)c(C(=O)NCCOc2c(F)cccc2F)c1Cl [Example 160] | 2.64 | 
54 | Cn1nc(C(F)F)c(C(=O)NCC(=O)Nc2c(Cl)cc(Cl)cc2Cl)c1Cl [Example 198] | 2.56 | 
55 | CCCN(CC(=O)Nc1c(Cl)cc(Cl)cc1Cl)C(=O)c1c(C(F)F)nn(C)c1Cl [Example 199] | 3.11 | 
56 | CCCN(CC(=O)Nc1c(Cl)cc(Cl)cc1Cl)C(=O)c1c(C(F)F)nn(C)c1F [Example 200] | 2.96 | 
57 | Cn1nc(C(F)F)c(C(=O)NCCOc2c(Cl)cc(Cl)cc2Cl)c1Cl [Example 201] | 3.80 | 
58 | CC(C)N(CCOc1c(Cl)cc(Cl)cc1Cl)C(=O)c1c(C(F)F)nn(C)c1F [Example 203] | 4.51 | 
59 | CCCN(CCOc1c(Cl)cc(Cl)cc1Cl)C(=O)c1c(C(F)F)nn(C)c1Cl [Example 205] | 4.56 | 

More lines, main results first:

Row | logP | SMILES | other results
60 | 3.67 | CN(C(=O)c1c(C(F)F)nn(C)c1Cl)C(COc1ccccc1Cl)C1CC1 (racemic) [Example 146] | 
61 | 2.25 | CC(C)N(CC(=O)Nc1ccccc1)C(=O)c1c(C(F)F)nn(C)c1F [Example 1] | 
62 | 2.46 | Cn1nc(C(F)F)c(C(=O)NC2(C(=O)Nc3ccccc3)CCCC2)c1F [Example 3] | 
63 | 3.06 | CCCN(CCOc1ccccc1)C(=O)c1c(C(F)F)nn(C)c1F [Example 8] | 
64 | 2.10 | Cn1nc(C(F)F)c(C(=O)NC(C)(C)C(=O)Nc2ccccc2)c1F [Example 24] | 
65 | 4.32 | CCCN(C(=O)c1c(C(F)F)nn(C)c1F)C(C)COc1ccccc1-c1ccccc1 (stereo not drawn) [Example 30] | 
66 | 3.62 | CC(C)N(CCOc1ccc(Cl)cc1)C(=O)c1c(C(F)F)nn(C)c1F [Example 56] | 
67 | 1.81 | Cc1cc(C)nc(CCC(C)NC(=O)c2c(C(F)F)nn(C)c2Cl)c1 (stereo not drawn) [Example 64] | 
68 | 3.29 | CC(CCc1ncc(C(F)(F)F)cc1Cl)N(C)C(=O)c1c(C(F)F)nn(C)c1F (stereo not drawn) [Example 87] | 
69 | 3.79 | Cn1nc(C(F)F)c(C(=O)N(CCCc2cc3ccccc3s2)C2CC2)c1F [Example 94] | 
70 | 2.69 | Cn1nc(C(F)F)c(C(=O)NCCCC2Cc3ccccc3O2)c1F (stereo not drawn) [Example 97] | 
71 | 2.17 | Cn1nc(C(F)F)c(C(=O)NCCCc2ccco2)c1F [Example 100] | 
72 | 3.04 | Cn1nc(C(F)F)c(C(=O)N(CCCc2cccs2)C2CC2)c1F [Example 102] | 
73 | 3.57 | CC(CCc1cccs1)N(C(=O)c1c(C(F)F)nn(C)c1Cl)C1CC1 (stereo not drawn) [Example 103] | 
74 | 2.52 | CN(CCCc1cccs1)C(=O)c1c(C(F)F)nn(C)c1F [Example 104] | 
75 | 4.21 | Cc1ccc2sc(CCCN(C(=O)c3c(C(F)F)nn(C)c3F)C3CC3)cc2c1 [Example 106] | 
76 | 3.41 | Cc1ccc(C(C)CCN(C(=O)c2c(C(F)F)nn(C)c2F)C2CC2)o1 (stereo not drawn) [Example 107] | 
77 | 2.88 | Cc1ccc(C(C)CCN(C)C(=O)c2c(C(F)F)nn(C)c2F)o1 (stereo not drawn) [Example 109] | 
78 | 2.21 | Cn1nc(C(F)F)c(C(=O)N(CCCC2CCCO2)C2CC2)c1F (stereo not drawn) [Example 114] | 
79 | 3.55 | Cn1nc(C(F)F)c(C(=O)NCCOc2cc(Cl)cc(Cl)c2)c1Cl [Example 118] | 
80 | 4.44 | Cn1nc(C(F)F)c(C(=O)NC(C)(C)CCc2ccc(Cl)c(Cl)c2)c1Cl [Example 133] | 
81 | 3.79 | CC(CCc1ccc(Cl)cc1Cl)NC(=O)c1c(C(F)F)nn(C)c1F (stereo not drawn) [Example 186] | 
82 | 2.39 | Cn1nc(C(F)F)c(C(=O)NCC(=O)Nc2c(Cl)cc(Cl)cc2Cl)c1F [Example 197] | 
83 | 4.37 | CCCN(CCOc1c(Cl)cc(Cl)cc1Cl)C(=O)c1c(C(F)F)nn(C)c1F [Example 204] | 
84 | 5.27 | Cn1nc(C(F)F)c(C(=O)N(CCOc2c(Cl)cc(Cl)cc2Cl)C2CCCC2)c1Cl [Example 206] | 
